Laboratory results: publication doi:10.1101/2025.02.07.637162, “Lactate dehydrogenase is the Achilles’ heel of Lyme disease bacterium Borreliella burgdorferi” (bioRxiv, 2025)

Experiments:
[1] = molecular target: T1, BbLDH (BB_0087, lactate dehydrogenase) (Borreliella burgdorferi, UniProt O51114); assay: X-ray crystal structure, […] Å; allosteric activation of enzyme activity; assay type: binding
T1 construct: gene ldh; full-length, 316 residues

[2] = molecular target: T1, BbLDH (BB_0087, lactate dehydrogenase); assay: X-ray crystal structure, […] Å; assay type: binding

T1 sequence (O51114 whole entry): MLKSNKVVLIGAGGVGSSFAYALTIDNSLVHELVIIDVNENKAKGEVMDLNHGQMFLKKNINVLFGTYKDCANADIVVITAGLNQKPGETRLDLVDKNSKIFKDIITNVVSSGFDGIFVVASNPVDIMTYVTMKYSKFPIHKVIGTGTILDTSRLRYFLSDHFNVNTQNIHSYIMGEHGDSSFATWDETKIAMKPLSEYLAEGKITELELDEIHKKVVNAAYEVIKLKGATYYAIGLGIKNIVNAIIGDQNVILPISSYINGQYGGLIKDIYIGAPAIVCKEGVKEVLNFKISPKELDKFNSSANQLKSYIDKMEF

Compound	X-ray crystal structure, 2.1 Å; allosteric activation of enzyme activity [1]	X-ray crystal structure, 2.1 Å [2]
O=P(O)(O)OC[C@H]1OC(O)(COP(=O)(O)O)[C@@H](O)[C@@H]1O (some centres unmarked) [FBP, fructose 1,6-bisphosphate]	Salt bridge and hydrogen bonding residues that interact with FBP in BbLDH (chain A and C, pink and yellow)	–
NC(=O)C1=CN([C@@H]2O[C@H](COP(=O)(O)OP(=O)(O)OC[C@H]3O[C@@H](n4cnc5c(N)ncnc54)[C@H](O)[C@@H]3O)[C@@H](O)[C@H]2O)C=CC1 [NADH]	–	Both structures were determined in the presence of NADH and the pyruvate analog oxamate (OXA)
